Data published in the supplement of paper PMC5908809.

How the values were obtained:
Assay in all cases: relative IC50 (inflection point of fitted viability curve, relative to fitted max inhibition); higher = less sensitive
Settings in all cases: 72 h
IMC-1 (IL-2 20 ng/mL) = tested on: IMC-1 (IL-2 20 ng/mL)
Experimental: (§1)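 Drug sensitivity and resistance testing: 5 concentrations over a 10,000-fold range, 72 h at 37 °C, viability by CellTiter-Glo normalised to DMSO and benzethonium chloride controls. IC50 is the inflection point of a logistic fit (min fixed at 0, max fitted), so it is relative to the fitted maximal inhibition. Kept only where fitted max inhibition is at least 50%.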

KAI3 (IL-2 2.5 ng/mL) = tested on: KAI3 (IL-2 2.5 ng/mL)
Experimental: as §1

KHYG-1 (IL-2 2.5 ng/mL) = tested on: KHYG-1 (IL-2 2.5 ng/mL)
Experimental: as §1

NK-92 (IL-2 2.5 ng/mL) = tested on: NK-92 (IL-2 2.5 ng/mL)
Experimental: as §1

NK-YS (IL-2 2.5 ng/mL) = tested on: NK-YS (IL-2 2.5 ng/mL)
Experimental: as §1

NKL (IL-2 2.5 ng/mL) = tested on: NKL (IL-2 2.5 ng/mL)
Experimental: as §1

SNK-6 (IL-2 2.5 ng/mL) = tested on: SNK-6 (IL-2 2.5 ng/mL)
Experimental: as §1

YT (IL-2 2.5 ng/mL) = tested on: YT (IL-2 2.5 ng/mL)
Experimental: as §1

[1] = tested on: normal primary NK cells, pool 1 (3 donors), resting (IL-2 0 ng/mL)
Experimental: as §1

[2] = tested on: normal primary NK cells, pool 3 (3 donors) (IL-2 2.5 ng/mL)
Experimental: as §1

DERL-7 (IL-2 2.5 ng/mL) = tested on: DERL-7 (IL-2 2.5 ng/mL)
Experimental: as §1

[3] = tested on: normal primary NK cells, pool 1 (3 donors) (IL-2 2.5 ng/mL)
Experimental: as §1

[4] = tested on: normal primary NK cells, pool 2 (3 donors) (IL-2 2.5 ng/mL)
Experimental: as §1

Structure (SMILES)	relative IC50 (IMC-1 (IL-2 20 ng/mL))	relative IC50 (KAI3 (IL-2 2.5 ng/mL))	relative IC50 (KHYG-1 (IL-2 2.5 ng/mL))	relative IC50 (NK-92 (IL-2 2.5 ng/mL))	relative IC50 (NK-YS (IL-2 2.5 ng/mL))	relative IC50 (NKL (IL-2 2.5 ng/mL))	relative IC50 (SNK-6 (IL-2 2.5 ng/mL))	relative IC50 (YT (IL-2 2.5 ng/mL))	relative IC50 [1]	relative IC50 [2]	relative IC50 (DERL-7 (IL-2 2.5 ng/mL))	relative IC50 [3]	relative IC50 [4]
COc1cc(Nc2ncc(F)c(Nc3ccc4c(n3)NC(=O)C(C)(C)O4)n2)cc(OC)c1OC [Tamatinib]	4100 nM	536 nM	1340 nM	2180 nM	1650 nM	992 nM	3590 nM	2580 nM	> 10000 nM	2800 nM			
C=CC[C@@H]1/C=C(\C)C[C@H](C)C[C@H](OC)[C@H]2O[C@@](O)(C(=O)C(=O)N3CCCC[C@H]3C(=O)O[C@H](/C(C)=C/[C@@H]3CC[C@@H](O)[C@H](OC)C3)[C@H](C)[C@@H](O)CC1=O)[C@H](C)C[C@@H]2OC [Tacrolimus]									1620 nM				
CC(C)C[C@@H](C(=O)N[C@H](C(=O)OC1CCCC1)c1ccccc1)[C@H](O)C(=O)NO [Tosedostat]			606 nM			1960 nM		1520 nM	274 nM		23.3 nM	942 nM	903 nM
O=C(O)C(=O)O.[NH-][C@@H]1CCCC[C@H]1[NH-].[Pt+2] [Oxaliplatin]	9490 nM									9130 nM			9290 nM
COc1cc2ncnc(Nc3ccc(F)c(Cl)c3)c2cc1OCCCN1CCOCC1 [Gefitinib]		1710 nM	2270 nM	2660 nM		1770 nM		2390 nM	3700 nM		3010 nM		
Cc1ccc2nc(CN(CCN(Cc3nc4ccc(C)cc4[nH]3)Cc3nc4ccc(C)cc4[nH]3)Cc3nc4ccc(C)cc4[nH]3)[nH]c2c1	8640 nM	3470 nM	6250 nM	3900 nM	8980 nM	2160 nM	18200 nM	7070 nM	8020 nM		8270 nM	7650 nM	
CC(C)Oc1ccc(C(=O)N[C@H](CNC(=O)CN(C)C)Cc2ccc(-c3cn4cccc([C@H](C)O)c4n3)cc2)cc1Cl	261 nM	439 nM	123 nM	204 nM	56.7 nM	54.3 nM	24.9 nM	48.2 nM	4570 nM		70.3 nM		
CC(=O)N(O)CCCCCNC(=O)CCC(=O)N(O)CCCCCNC(=O)CCC(=O)N(O)CCCCCN [Deferoxamine]	3210 nM									1580 nM			
N#CC(c1ccnc(OCc2ccc(CN3CCOCC3)cc2)n1)c1nc2ccccc2s1 (stereo unspecified) [Bentamapimod]	2230 nM		1690 nM			1810 nM		1590 nM			1440 nM		
O=C(Nc1ccncc1)C(=O)c1cn(Cc2ccc(Cl)cc2)c2ccccc12 [Indibulin]	339 nM	45 nM	103 nM	48.5 nM	77.7 nM	85.6 nM	2.97 nM	131 nM			922 nM	> 10000 nM	
CC1(C)CCC(CN2CCN(c3ccc(C(=O)NS(=O)(=O)c4ccc(NCC5CCOCC5)c([N+](=O)[O-])c4)c(Oc4cnc5[nH]ccc5c4)c3)CC2)=C(c2ccc(Cl)cc2)C1 [Venetoclax]		7.28 nM	1280 nM	1730 nM	1450 nM	115 nM	34.8 nM	415 nM	8.76 nM		211 nM	859 nM	
CCc1c2c(nc3ccc(OC(=O)N4CCC(N5CCCCC5)CC4)cc13)-c1cc3c(c(=O)n1C2)COC(=O)[C@]3(O)CC [Irinotecan]	347 nM	146 nM	152 nM	140 nM	282 nM	73 nM	260 nM	577 nM			597 nM		
CN(C)C(=O)c1cc2cnc(Nc3ccc(N4CCNCC4)cn3)nc2n1C1CCCC1 [NVP-LEE011]			1060 nM						630 nM			2200 nM	
NCC(=O)Nc1ccc(-n2nc(C(F)(F)F)cc2-c2ccc3c(ccc4ccccc43)c2)cc1	4370 nM	4900 nM	1310 nM	4950 nM	1980 nM	4070 nM	3810 nM	5540 nM		7230 nM			7200 nM
NC(=O)c1ccc(I)c([N+](=O)[O-])c1 [Iniparib]									1360 nM			1620 nM	
O=C(O)c1ccc(O)c2ncccc12 [IOX-1]	37400 nM	17000 nM	28400 nM	26400 nM	32200 nM	29100 nM	20200 nM	32700 nM			21600 nM		
S=c1[nH]cnc2nc[nH]c12 [Mercaptopurine]	1590 nM	2160 nM	1420 nM	393 nM	725 nM		137 nM	1410 nM	> 10000 nM				
CCS(=O)(=O)N1CC(CC#N)(n2cc(-c3ncnc4[nH]ccc34)cn2)C1 [Baricitinib]	451 nM	18.4 nM	26.2 nM	95.8 nM	63.5 nM	12 nM	73.3 nM	163 nM		124 nM	51.9 nM	46.9 nM	54.4 nM
O=C(Nc1ccc2[nH]nc(-c3ccncc3)c2c1)[C@@H]1CCN(CC(=O)N2CCN(c3ccc(-c4ncccn4)cc3)CC2)C1	> 10000 nM		784 nM			516 nM			1670 nM		382 nM		
CCN(CC)CCCC(C)Nc1c2ccc(Cl)cc2nc2ccc(OC)cc12 (stereo unspecified) [Mepacrine]	1500 nM									1550 nM			1220 nM
Cc1sc2c(c1C)C(c1ccc(Cl)cc1)=N[C@@H](CC(=O)Nc1ccc(O)cc1)c1nnc(C)n1-2 [OTX015]	630 nM	437 nM	145 nM		229 nM	75.2 nM	43 nM	241 nM		804 nM	48.1 nM	171 nM	393 nM
FC(F)(F)c1ccc(/C=C/c2nc(COc3ccc(CCCCn4ccnn4)cc3)co2)cc1 [Mubritinib]	11.2 nM		45.7 nM		42 nM	56 nM			12 nM			12.2 nM	

Structure (SMILES)	relative IC50 (IMC-1 (IL-2 20 ng/mL))	relative IC50 (KAI3 (IL-2 2.5 ng/mL))	relative IC50 (KHYG-1 (IL-2 2.5 ng/mL))	relative IC50 (NK-92 (IL-2 2.5 ng/mL))	relative IC50 (NK-YS (IL-2 2.5 ng/mL))	relative IC50 (NKL (IL-2 2.5 ng/mL))	relative IC50 (SNK-6 (IL-2 2.5 ng/mL))	relative IC50 (YT (IL-2 2.5 ng/mL))	relative IC50 [1]	relative IC50 [2]	relative IC50 (DERL-7 (IL-2 2.5 ng/mL))	relative IC50 [3]	relative IC50 [4]
CNC(=O)c1ccc(N2C(=S)N(c3ccc(C#N)c(C(F)(F)F)c3)C(=O)C2(C)C)cc1F [Enzalutamide]		> 10000 nM								> 10000 nM	> 10000 nM		
COc1cc2c(cc1O)CC[C@@H]1[C@@H]2CC[C@]2(C)[C@@H](O)CC[C@@H]12 [2-methoxyestradiol]	791 nM	442 nM	319 nM	153 nM	260 nM	243 nM	263 nM	373 nM			589 nM		
COc1cccc2c1c(O)c(C(=O)N(C)c1ccc(C(F)(F)F)cc1)c(=O)n2C [Tasquinimod]										> 10000 nM	> 10000 nM		> 10000 nM
CC[C@]1(O)C[C@@H]2CN(CCc3c([nH]c4ccccc34)[C@@](C(=O)OC)(c3cc4c(cc3OC)N(C)[C@H]3[C@@](O)(C(=O)OC)[C@H](OC(C)=O)[C@]5(CC)C=CCN6CC[C@]43[C@@H]65)C2)C1 [Vinblastine]	3.57 nM	9.24 nM	3.44 nM	7.82 nM	6.11 nM	3.72 nM	5.22 nM	4.62 nM			3.3 nM		
O=C(c1ccc(/C=C/c2n[nH]c3ccccc23)cc1)N1CCNCC1 [KW-2449]	> 2500 nM		807 nM				687 nM			> 2500 nM	920 nM		
CCS(=O)(=O)c1cccc(-c2cc(C(=O)NC3CCN(C)CC3)c(C)c3[nH]c4ncc(C)cc4c23)c1 [TAK-901]	116 nM	116 nM	208 nM		30.8 nM	105 nM	135 nM				50.2 nM	303 nM	
Cc1cc(C(C)Nc2ccccc2)c2nc(N3CCOCC3)cc(=O)n2c1 (stereo unspecified) [TGX-221]	> 10000 nM								1450 nM				
CN(C)c1nc(N(C)C)nc(N(C)C)n1 [Altretamine]			> 10000 nM	> 10000 nM				> 10000 nM					
COc1cc(Nc2ncc3c(n2)-c2ccc(Cl)cc2C(c2c(F)cccc2OC)=NC3)ccc1C(=O)O [Alisertib]	116 nM	116 nM	50.5 nM	41.3 nM	22 nM	52.5 nM	39.5 nM	91.9 nM			28.2 nM		
CNC(=O)c1cc(Oc2ccc(NC(=O)Nc3cc(C(C)(C)C)nn3-c3ccc4ncccc4c3)c(F)c2)ccn1 [Rebastinib]										> 1000 nM		> 1000 nM	> 1000 nM
COc1ncc(-c2ccc3nccc(-c4ccnnc4)c3c2)cc1NS(=O)(=O)c1ccc(F)cc1F [Omipalisib]		11.4 nM	114 nM	11.2 nM	39.5 nM	57.5 nM	101 nM	29 nM			11.1 nM		
O=C(O)c1ccc(Nc2ncc3c(n2)-c2ccc(Cl)cc2C(c2c(F)cccc2F)=NC3)cc1 [MLN-8054]	1540 nM	291 nM	259 nM	563 nM	125 nM	107 nM	73.6 nM	190 nM			763 nM		
O=C(Nc1cccc(Cl)c1)Nc1ncc(CCNc2ncnc3ccsc23)s1 [SNS-314]	201 nM		12.4 nM	61.3 nM	37.9 nM		10.5 nM				28.1 nM		
CO[C@H]1C[C@@H]2CC[C@@H](C)[C@@](O)(O2)C(=O)C(=O)N2CCCC[C@H]2C(=O)O[C@H]([C@H](C)C[C@@H]2CC[C@@H](OC(=O)C(C)(CO)CO)[C@H](OC)C2)CC(=O)[C@H](C)/C=C(\C)[C@@H](O)[C@@H](OC)C(=O)[C@H](C)C[C@H](C)/C=C/C=C/C=C/1C [Temsirolimus]		0.5 nM	1.32 nM		0.31 nM	0.09 nM	0.26 nM	0.61 nM			0.57 nM		
COc1cc2c(Nc3ccc(Cl)c(Cl)c3F)ncnc2cc1OC[C@@H]1C[C@@H]2CN(C)C[C@@H]2C1 [XL-647]				183 nM		133 nM			157 nM				
CCOc1cc2ncc(C#N)c(Nc3ccc(OCc4ccccn4)c(Cl)c3)c2cc1NC(=O)/C=C/CN(C)C [Neratinib]				206 nM					364 nM		216 nM		
CC1=C(/C=C/C(C)=C/C=C/C(C)=C/C(=O)O)C(C)(C)CCC1 [Tretinoin]	> 10000 nM									> 10000 nM			
Cc1cnc(NC(=O)Nc2cc(Br)c(C)cc2OC[C@@H]2CNCCO2)cn1 [Rabusertib]		203 nM	197 nM	172 nM	279 nM	192 nM	179 nM					> 1000 nM	
CCc1nc(-c2cccc(C)c2)c(-c2ccnc(NC(=O)c3ccccc3)c2)s1 [TAK-715]				2170 nM	1570 nM		3250 nM						
O=c1[nH]c(=O)n([C@H]2C[C@H](O)[C@@H](CO)O2)cc1F [Floxuridine]	128 nM	10.1 nM	8.42 nM	19.5 nM	28.9 nM	75.2 nM	68.6 nM	286 nM		> 10000 nM	31 nM		
CNC(=O)c1cccc2cc(Oc3ccnc4cc(OCC5(N)CC5)c(OC)cc34)ccc12 [Lucitanib]			2000 nM	1910 nM	2000 nM		3720 nM	3440 nM					
